Test results reported in ChEMBL document CHEMBL1201862, “PubChem BioAssay data set” (2004).
Calls of active or inactive are those of the source.

What was measured:
Mu-type opioid receptor = Mu-type opioid receptor (Homo sapiens, UniProt P35372); type: functional, cell-based;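 also: U2OS cells with beta-arrestin recruitment to OPRM1 by beta-gal complementation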
[1] = biological target: 5-hydroxytryptamine receptor 2A (Mus musculus, UniProt P35363); type: functional, cell-based;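 also: CHO-K1 cells with tagged receptor and beta-arrestin; agonist potency measured as compound-induced activation of the receptor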
[2] = CEM21 cell cytotoxicity, dose response, cytotoxicity control, plate reader, dry powder (AID 687026); type: functional, cell-based
[3] = off-target signal loss in HeLa-CEM21 co-culture – HeLa F-luc CTL cells, cherry-picked, counter-screen for HIV-1 Env fusion inhibitor project, dose response (AID 652040); type: functional, cell-based;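 also: potency for signal decrease marking cytotoxic or nonspecific inhibition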
[4] = inhibitors of clade B AD8 Env fusion, dose response, cell-based, cherry-pick (AID 652062); type: functional;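 also: luciferase signal from cell-cell fusion driven by HIV-1 clade B AD8 Env; potency is for inhibitors of fusion seen as a drop in luminescence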
[5] = inhibitors of HIV Env-driven cell fusion, dose response, cherry-pick (AID 652057); type: functional, cell-based
[6] = ZM109 Env clade C HIV-1 fusion inhibitors, dose response, HeLa effector, CEM target cells, luciferase, cherry-pick (AID 652058); type: functional, cell-based
[7] = CEM21 lymphoblast cell cytotoxicity, dose response, cytotoxicity control for viral fusion inhibitor project, CellTiter-Glo luminescence, cherry-picked (AID 652042); type: functional, cell-based;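 also: potency for signal decrease meaning cytotoxicity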
[8] = NIH/3T3 fibroblast cytotoxicity, dose response, cytotoxicity control for T. cruzi growth inhibitor project, cell-based, cherry-pick samples, set 2 (AID 651817); type: functional; details: NIH3T3
Major prion protein = Major prion protein (Homo sapiens, UniProt P04156); type: functional, cell-based
cells [9] = test: cells
[10] = TRPM1 promoter luciferase reporter signal decrease, dose response, MITF inhibitor project, cell-based, SK-MEL-5, dry powder, set 8 (AID 624430); type: functional
[11] = MITF Orthogonal Assay: SK-MEL-5 CTG Assay Measured in Cell-Based System Using Plate Reader - 2084-02_Inhibitor_Dose_DryPowder_Activity_Set7.; type: functional
[12] = MITF: Counter assay: A375 proliferation Measured in Cell-Based System Using Plate Reader - 2084-03_Inhibitor_Dose_DryPowder_Activity_Set8.; type: functional; details: A-375
[13] = biological target: T1, Corticotropin-releasing factor receptor 2/Corticotropin-releasing factor-binding protein (Homo sapiens, UniProt P24387+Q13324); test: activators of CRF receptor 2 with binding protein – uHTS hits, confirmation (AID 602473); type: functional; details: read-out: EC50_Mean
T1 sequence (Q13324 whole entry): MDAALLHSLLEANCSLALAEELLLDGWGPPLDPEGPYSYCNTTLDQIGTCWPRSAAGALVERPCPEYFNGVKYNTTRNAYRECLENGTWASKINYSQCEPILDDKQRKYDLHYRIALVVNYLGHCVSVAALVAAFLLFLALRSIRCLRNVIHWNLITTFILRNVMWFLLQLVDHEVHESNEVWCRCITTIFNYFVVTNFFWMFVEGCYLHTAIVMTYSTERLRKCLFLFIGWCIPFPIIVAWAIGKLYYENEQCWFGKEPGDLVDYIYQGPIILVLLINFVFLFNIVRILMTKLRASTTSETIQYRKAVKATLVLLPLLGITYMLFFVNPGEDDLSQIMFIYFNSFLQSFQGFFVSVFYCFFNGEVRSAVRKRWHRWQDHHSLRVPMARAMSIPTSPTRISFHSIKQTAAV
T1 sequence (P24387 whole entry): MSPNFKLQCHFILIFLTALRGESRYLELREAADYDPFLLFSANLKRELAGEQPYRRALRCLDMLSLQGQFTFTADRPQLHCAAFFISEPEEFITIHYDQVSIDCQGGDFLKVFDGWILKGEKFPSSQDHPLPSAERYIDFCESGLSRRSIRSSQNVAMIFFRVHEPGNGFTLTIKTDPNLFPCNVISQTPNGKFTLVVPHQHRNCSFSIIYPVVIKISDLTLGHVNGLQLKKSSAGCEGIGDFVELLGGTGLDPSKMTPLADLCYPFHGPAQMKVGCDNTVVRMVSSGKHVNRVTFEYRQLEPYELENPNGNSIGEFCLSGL

[14] = HEK293T cell cytotoxicity, dose response, cytotoxicity control for HIV Vif inhibitor project, cherry-picks (AID 652208); type: functional, cell-based
[15] = biological target: Endoplasmic reticulum aminopeptidase 1 (Homo sapiens, UniProt Q9NZ08); test: ERAP1 aminopeptidase inhibitors, dose response, biochemical, cherry-pick, set 2, plate reader (AID 743314)
cells [16] = type: functional, cell-based
[17] = biological target: Nuclear receptor subfamily 0 group B member 1 (Homo sapiens, UniProt P51843); type: functional, cell-based;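 also: HEK293T cells transfected with SF-1 and DAX-1 plus StAR promoter luciferase reporter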
[18] = T. cruzi growth inhibition in host cells, dose response, cell-based, plate reader, dry powder, set 2 (AID 652275); type: functional
[19] = biological target: FAD-linked sulfhydryl oxidase ALR (Homo sapiens, UniProt P55789); test: inhibitors of human ALR sulfhydryl oxidase, dose response, biochemical, H2O2 detection, luminescence, cherry-pick (AID 493248)
fMet-Leu-Phe receptor = fMet-Leu-Phe receptor (Homo sapiens, UniProt P21462); test: FPR ligands, dose response (AID 519); type: functional

Compound: CCCCCc1cc(=O)oc2c(C(CCN3CCN(c4ccccc4)CC3)c3ccc4c(c3)OCO4)c(OC)cc(OC)c12 (configuration not stated)
- EC50 (Mu-type opioid receptor): 92.5 µM (inactive)
- EC50 [1]: 76.1 µM (inactive)

Compound: CCCn1nc(C(=O)Nc2ccc3nc(N4CCOCC4)sc3c2)ccc1=O
- AC50 [2]: > 70 µM (inactive)
- AC50 [3]: > 70 µM (inactive)
- AC50 [4]: 10.3 µM (active)
- AC50 [5]: 1.85 µM (active)
- AC50 [6]: 1.04 µM (active)
- AC50 [7]: 67.1 µM (active)

Compound: C[C@@H]1CN([C@@H](C)CO)C(=O)Cc2cc(NS(=O)(=O)c3ccc(Cl)cc3)ccc2O[C@H]1CN(C)S(=O)(=O)c1ccc(Cl)cc1
- AC50 [8]: 19.4 µM (active)

Compound: CCOC(=O)C(C)Sc1nc(-c2ccccc2)nc2ccccc12 (configuration not stated)
- IC50 (Major prion protein): 1.83 µM (active)
- IC50 (cells [9]): > 138 µM (inactive)

Compound: CC(C)N1CCN(C2=C(Nc3cccc(Cl)c3)C(=O)c3ccccc3C2=O)CC1
- AC50 [10]: 2.47 µM (active)
- AC50 [11]: 7.16 µM (active)
- AC50 [12]: 30.1 µM (active)

Compound: O=C(NCc1ccccc1C(F)(F)F)c1cccc2c1C(=O)c1ccc(N3CCCCC3)cc1S2(=O)=O
- EC50 [13]: 5.37 µM (active)
- AC50 [14]: > 52 µM (inactive)

Compound: CCN1CCN(Cc2c(O)ccc3c(C)cc(=O)oc23)CC1
- AC50 [15]: 10 µM (active)

Compound: CCc1ccc(NC(=O)N2CCc3ccccc3C2)cc1
- IC50 (cells [16]): > 67.6 µM (inactive)
- IC50 [17]: > 67.6 µM (inactive)

Compound: CC(C)(C)[S@@+]([O-])N1Cc2cc(C(=O)NCc3ccc4c(c3)OCO4)nc(-c3cccc(-c4cccnc4)c3)c2[C@H]1CCO
- AC50 [18]: 1.67 µM (active)

Compound: Cc1nnc(SCc2cnc(-c3ccccc3)o2)nc1O
- AC50 [19]: 0.547 µM (active)
- Ki (fMet-Leu-Phe receptor): > 66.7 µM (inactive)
